From patent US20200216906A1, “METHODS AND COMPOSITIONS RELATING TO THE DIAGNOSIS AND TREATMENT OF CANCER” (PRESIDENT AND FELLOWS OF HARVARD COLLEGE, priority 2015, published 2020)
Structures can show the parent of a compound that is named as a salt. Where two headings read alike, the source gives them in different places.

Legend:
[1] = tested on: Panc02.13-YAPS6A xenografts; experiment: Mouse xenograft, Panc02.13-YAPS6A; format: in vivo; settings: 50 mg/Kg, alternate days for two weeks
Protocol: In mouse xenograft studies, two human pancreatic cancer cell lines (Miapac2 and Panc02.13) expressing GFP or YAPS6A were injected into athymic mice. […] When the tumors were ˜200 mm^3 (as measured using a caliper), mice were randomized into treatment and control groups. The former received i.p. saline injections on alternate days for two weeks, and the latter received gemcitabine (20 mg/kg in Miapaca2-YAPS6A and 50 mg/Kg in Panc02.13-YAPS6A cohorts).
Tumorigenicity in Nude Mice. All in vivo experiments were performed using 6-week-old to 8-week-old athymic nude mice. Mice were maintained in laminar flow rooms with constant temperature and humidity. […] Cells (2×10^6 in suspension) were injected on day 0, and tumor growth was followed every 2 to 3 days by tumor diameter measurements using vernier calipers. Tumor volumes (V) were calculated using the formula: V=AB2/2 (A, axial diameter; B, rotational diameter). When the outgrowths were • 200 mm^3, mice were divided at random into two groups (control and treated, n=3-8). The treated group received gemcitabine injection or saline control on alternate days (MWF) for 2 weeks.

[2] = tested on: Panc02.13 cells expressing YAPS6A construct; experiment: Kinetic cell growth assay, Panc02.13 cells expressing YAPS6A; format: cell-based, human; settings: for EC50: Homo sapiens, YAPS6A construct
Protocol: Panc02.13 cells were used to express YAPS6A (or vector controls) under sparse and dense cultures. Expression was confirmed by confocal microscopy (data not shown). Suppression of the Hippo pathway by expression of non-phospho, active form of YAP (YAPS6A) sensitized pancreatic cancer cells to gemcitabine and 5-FU (FIGS. 6 and 7). Apoptosis was measured by immunobloting with cleaved caspases 3/7 or PARP. Blots were also stained with anti-β-actin for loading control. The effect of Hippo pathway suppression on gemcitabine and 5-FU senstitization was maintained in 3D spheroid culture (FIG. 8). The effects of eleven cytotoxic drugs on the growth of Panc02.13 cells expressing vector only or YAPS6A construct grown under low or high densities were determined (Table 1).
(§1) The effect of gemcitabine on pancreatic cancer cell growth was studied using a kinetic cell growth assay. Pancreatic cancer cells were plated on 96-well plates (Essen ImageLock, Essen Instruments, MI, US) at varying densities (2-4×10^3 for low density or 15-20×10^3 for high density experiments). Small molecule inhibitors at different doses were added 24 hours after plating and cell confluence was monitored with Incucyte Live-Cell Imaging System and software (Essen Instruments). Confluence was observed every hour for 48-144h or until the control (DMSO only) samples reached 100% confluence.
Cell lines (Panc02.13, Panc10.05 or Miapaca2) were transfected with YAPS6A constructs (Addgene) using Lipofectamine™ (Invitrogen, Carlsbad, Calif.) following the manufacturer's instructions and 48 hour post-transfection selected in 5-10 μg/ml Blasticidin (InvivoGen, San Diego, Calif.). The clones screened for YAPS6A expression by Western blot. Stable cell lines were maintained in complete medium and 5 μg/ml Blasticidin.
as §1, with “Kinetic Cell growth assay. The” for “The”, “(2-4X103” for “(2-4×10^3”, “15-20X103” for “15-20×10^3”, “Incucyte™” for “Incucyte”

[3] = tested on: Miapaca2-YAPS6A xenografts; experiment: Mouse xenograft, Miapaca2-YAPS6A; format: in vivo
Protocol: To assess the gemcitabine response to Hippo pathway inactivation in tumors a mouse xenograft model of pancreatic carcinoma cells and patient-derived xenograft (PDX) models from a variety of solid tumors including human cancers from non-small cell lung, esophagus, breast, mesothelium, ovary, colon, head and neck, sarcoma, and cholangiocarcinoma were used (FIG. 30). In mouse xenograft studies, two human pancreatic cancer cell lines (Miapac2 and Panc02.13) expressing GFP or YAPS6A were injected into athymic mice. Both parental or GFP expressing cells grew rapidly, producing palpable tumors in 5-10 days. When the tumors were ˜200 mm^3 (as measured using a caliper), mice were randomized into treatment and control groups. The […] received i.p. saline injections on alternate days for two weeks, and the latter received gemcitabine (20 mg/kg in Miapaca2-YAPS6A and 50 mg/Kg in Panc02.13-YAPS6A cohorts).
Tumorigenicity in Nude Mice. All in vivo experiments were performed using 6-week-old to 8-week-old athymic nude mice. Mice were maintained in laminar flow rooms with constant temperature and humidity. Miapaca2 or Panc02.13 cells were inoculated subcutaneously (s.c.) into each flank of the mice. Cells (2×10^6 in suspension) were injected on day 0, and tumor growth was followed every 2 to 3 days by tumor diameter measurements using vernier calipers. Tumor volumes (V) were calculated using the formula: V=AB2/2 (A, axial diameter; B, rotational diameter). When the outgrowths were • 200 mm^3, mice were divided at random into two groups (control and treated, n=3-8). The treated group received gemcitabine injection or saline control on alternate days (MWF) for 2 weeks.
Intra-tumor gemcitabine measurements.

[4] = tested on: H2052 mesothelioma cells (LATS2 deletion); experiment: Cell growth of H2052 mesothelioma cells; format: cell-based
[5] = biological target: T1, ABCG2 (Homo sapiens, UniProt Q9UNQ0); settings: Cusatis and Sparreboom, 2008; cited from earlier work
T1 sequence (Q9UNQ0 1-655): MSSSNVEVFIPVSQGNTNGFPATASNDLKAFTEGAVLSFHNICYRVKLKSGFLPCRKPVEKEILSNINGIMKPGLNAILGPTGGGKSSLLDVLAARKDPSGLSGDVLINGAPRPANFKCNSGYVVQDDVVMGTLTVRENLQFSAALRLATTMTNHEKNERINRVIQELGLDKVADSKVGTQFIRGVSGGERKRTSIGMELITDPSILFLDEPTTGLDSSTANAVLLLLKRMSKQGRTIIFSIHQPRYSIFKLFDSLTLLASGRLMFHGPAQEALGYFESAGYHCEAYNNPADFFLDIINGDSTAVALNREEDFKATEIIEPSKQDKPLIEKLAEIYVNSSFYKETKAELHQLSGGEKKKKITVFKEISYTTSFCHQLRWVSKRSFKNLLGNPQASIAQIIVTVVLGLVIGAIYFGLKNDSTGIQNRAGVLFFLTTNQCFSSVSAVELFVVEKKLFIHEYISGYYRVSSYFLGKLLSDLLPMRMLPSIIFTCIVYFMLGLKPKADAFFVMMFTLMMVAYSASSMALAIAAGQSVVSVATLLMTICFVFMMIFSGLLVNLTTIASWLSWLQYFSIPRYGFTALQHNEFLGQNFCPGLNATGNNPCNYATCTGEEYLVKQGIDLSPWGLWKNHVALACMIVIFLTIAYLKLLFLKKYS

[6] = Stability of gemcitabine in culture and conditioned media; format: in vitro ADME
From the text: Drug availability mediated by transport or binding or export from the cell is known to be a major determinant of the sensitivity to chemotherapy (O'CONNOR, 2007). […] Furthermore, conditioned media collected from Panc02.13 cells exposed to gemcitabine after 5 days retained 96.7% activity (FIGS. 35A-[…]).

## Nc1ccn([C@@H]2O[C@H](CO)[C@@H](O)C2(F)F)c(=O)n1 [Gemcitabine, Gemcitabine hydrochloride]
[1]
  Tumor volume: significant regression
[2]; high density, read-out: High density (EC50, nM) 02.13-YAPS6A
  EC50: 17 nM
[2]; low density, read-out: Low density (EC50, nM) 02.13-YAPS6A
  EC50: 1.7 nM
[2]; suppression of the Hippo pathway, high cell density
  Sensitization by expression of YAPS6A: sensitized
[3]; 20 mg/kg, alternate days for two weeks
  Growth of xenografts: significantly slowed
[3]; cleaved caspase 7 and phosphor-H2aX
  Induction in apoptosis vs parental controls: > 2 fold
[4]
  Sensitivity of mesothelioma cells harboring LATS2 deletion: sensitive
[5]
  Substrate of ABCG2: substrates of ABCG2
[6]; conditioned media from Panc02.13 cells after 5 days
  Activity retained in conditioned media: 96.7%
[6]; culture media
  Lability in culture media: not labile
